Source: publication PMC12592502, “Unraveling the mechanisms behind the enhanced efficacy of β-lactam-based sideromycins” (Communications Biology, 2025)
Values after ≈ are worked out from the molar mass of the structure shown. Where two headings read alike, the source gives them in different places.

Tests used:
[1] = system: E. coli BW25113; test: MIC, parental strain of Keio mutants; assay type: cell-based, Escherichia coli
Experimental: (§1) All bacterial strains (see description and sources Table S1) were stored at −80 °C, and grown on tryptone soya agar (TSA) at 35 °C. The iron-deprived (ID)-MHBCA (cation-adjusted Muller-Hinton Broth, Becton Dickinson, Mississauga, ON, Canada) medium was prepared as reported by refs. [21],[50]. Briefly, MHBCA was treated with 10% Chelex® 50-100 mesh (Sigma) and stirred for 6 h at room temperature. The resin was removed by filtration. Divalent Ca^2+ (CaCl2), Mg^2+ (MgCl2), and Zn^2+(ZnSO4), were then added in the iron-depleted medium at 22, 12, and 1 μg/ml respectively. Finally, the pH was adjusted to 7.3, and the medium was sterilized with a 0.2-μm filter. Regular MHBCA (i.e., not treated with Chelex®) was used to compare the inhibitory activity of conjugates in iron-sufficient conditions.
(§2) Minimal inhibitory concentrations (MICs) were performed using a broth microdilution technique according to the Clinical and Laboratory Standards Institute (CLSI) guidelines. MICs were determined in MHBCA and in ID-MHBCA. To check the impact of β-lactamases, MICs in the presence of a β-lactamase inhibitor were also determined. The inhibitor was homogenized at 2X the final concentration and added to the bacterial inoculum just before distributing cells into the wells containing the drug dilutions. The final concentration of each inhibitor was 4 μg/mL for clavulanic acid (tested against K. pneumoniae) and 200 μg/mL for 3-aminophenylboronic acid (tested against P. aeruginosa and A. baumannii).

[2] = target: AmpC (PDC-5) (Pseudomonas aeruginosa, UniProt P24735, R79Q/T105A); test: biochemical; assay type: biochemical, P. aeruginosa ATCC 27853
Chain of AmpC (PDC-5) (P24735 27-397 R79Q/T105A): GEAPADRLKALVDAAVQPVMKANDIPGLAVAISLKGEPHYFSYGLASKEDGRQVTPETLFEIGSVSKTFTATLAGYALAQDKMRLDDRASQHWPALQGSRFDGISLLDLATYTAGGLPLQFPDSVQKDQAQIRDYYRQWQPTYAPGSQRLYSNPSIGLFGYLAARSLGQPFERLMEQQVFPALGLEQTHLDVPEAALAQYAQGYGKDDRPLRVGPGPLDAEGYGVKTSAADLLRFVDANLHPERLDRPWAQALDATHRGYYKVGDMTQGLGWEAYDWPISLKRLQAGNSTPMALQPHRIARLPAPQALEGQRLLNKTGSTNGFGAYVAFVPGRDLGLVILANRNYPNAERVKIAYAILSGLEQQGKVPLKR
Experimental: The purification of AmpC from the culture supernatant obtained above was conducted as described in the Catwright and Waley protocol[52] using an Affi-gel 10 matrix (Bio-Rad, Hercules, CA, USA) loaded in a column (G-Bioscience, St-Louis, MO, USA). First, the resin was washed with cold deionized water. The resin was then collected and mixed with 20 mL of the 3-aminophenylboronic acid solution (1 M KHCO3 containing 2 g of 3-aminophenyl boronic acid and 2 g of sorbitol) at 4 °C for 1 h, and the pH was maintained at 8 with solid KHCO3. The mixture was loaded onto the column and washed with 10 column volumes of 1 M NaCl/0.5 M sorbitol (pH 7), followed by 10 column volumes of 0.5 M borate (pH 7), and then 10 column volumes of the loading buffer (20 mM triethanolamine HCl/0.5 M NaCl, pH 7). The sample was dialyzed in the loading buffer before being loaded onto the column. The column was washed with the loading buffer until no absorbance was measured at OD280. AmpC was eluted in fractions of 1 mL with 0.5 M borate/0.5 M NaCl pH 7. […] The purity was visualized on a 10% bis-acrylamide gel. Only pure fractions showing a single band at 40 kDa were pooled together and then dialyzed at 4 °C in a KP buffer 0.05 M pH 7 (see Fig. S2). The protein concentration was determined with a Bradford protein reagent (Bio-Rad).
Enzyme concentrations were 20 nM for AmpC and SHV-1, and 50 nM for OXA-98. Quartz cuvette (FireflySci Inc., Northport, NY) with 1 cm length path and 2 mm inside width was used with an Ultrospec 2100 Pro (Biochrom, Harvard Bioscience Inc., USA) to acquire the kinetic measures. […] The following extinction coefficients (Δε) and wavelengths (λ) were used:
The steady-state parameters (Km and Kcat) were determined by plotting the initial velocity against substrate concentrations (Michaelis–Menten curve). The Kcat was measured using the Vmax (μM/sec) divided by the total enzyme concentration and the catalytic efficiency was further calculated (Kcat/Km). SHV-1 parameters were determined with three Michaelis–Menten curves of at least seven substrate concentrations, while OXA-98 and AmpC were duplicates of curves of at least seven substrate concentrations. […] Initial velocities were measured at room temperature (25 °C). The Vmax and Km were calculated using least squares fit regression in GraphPad version 10.2.2. Ki was measured using a derivative of IC50 with an adaptation of the Cheng–Prusoff equation[55]. […] The corrected Ki was calculated using this formula: Kicorrected=Ki(observed)/1+S/KmNCF

[3] = system: P. aeruginosa 1020; test: MIC, parent of efflux pump mutants; assay type: cell-based, Pseudomonas aeruginosa
Experimental: as §2

[4] = system: E. coli ATCC 25922; test: MIC, broth microdilution (CLSI); assay type: cell-based, Escherichia coli; settings: for MIC ratio unconjugated β-lactam/conjugate / MIC ratio 0/1 / MIC ratio 1/0: ID-MHBCA; for MIC ratio 0/1: 0 and 1 µg/mL supplemental iron (Table S2); for MIC ratio 1/0: 1 versus 0 µg/mL supplemental iron (peer review file table); for MIC ratio unconjugated β-lactam/conjugate (AMP/BAMP, LOR/BLOR, CEF/MCEF): MHBCA
Experimental: as §1, §2

[5] = Escherichia coli, BW25113, BW25113, ID-MHBCA
[6] = Escherichia coli, BW25113, BW25113, MHBCA
[7] = Pseudomonas aeruginosa, P. aeruginosa 1020, read-out: MIC
[8] = Escherichia coli, ATCC25922, ID-MHBCA + 0.1 µg/mL supplemental iron
[9] = Escherichia coli, ATCC25922, ID-MHBCA + 1 µg/mL supplemental iron
[10] = Escherichia coli, ATCC25922, MHBCA (+)
[11] = Escherichia coli, ATCC25922, iron-deprived ID-MHBCA (−), 0 µg/mL supplemental iron
[12] = iron-deprived ID-MHBCA (−), 0 µg/mL supplemental iron

| Structure (SMILES) | MIC [1, 5] [µM] | MIC [1, 6] [µM] | Ki [2] [µM] | MIC [3, 7] [µM] | MIC [4, 8] [µM] | MIC [4, 9] [µM] | MIC [4, 10] [µM] | MIC [4, 11] [µM] | MIC ratio unconjugated β-lactam/conjugate [4] | MIC ratio 0/1 [4] | MIC ratio 1/0 [4] | MIC ratio unconjugated β-lactam/conjugate (AMP/BAMP, LOR/BLOR, CEF/MCEF) [4] | MIC ([3]; Pseudomonas aeruginosa, 1020) [µM] | AmpC (PDC-5) Vmax ([2]; n = 2) [µmol·mg/min] | MIC ([1]; BW25113, ID-MHBCA) [µM] | MIC [4, 12] [µM] | other results |
| --- | --- | --- | --- | --- | --- | --- | --- | --- | --- | --- | --- | --- | --- | --- | --- | --- | --- |
| CC1(C)SC2C(NC(=O)C(NC(=O)CN(CCCCNC(=O)c3cccc(O)c3O)C(=O)c3cccc(O)c3O)c3ccccc3)C(=O)N2C1C(=O)O (stereo not shown) [BAMP, bis-catechol (azotochelin)-ampicillin] | 0.024 (≈ 0.018 µg/mL) | 0.05 (≈ 0.0375 µg/mL) | 19 ± 1 | 0.4 (≈ 0.3 µg/mL) | 0.1 | 0.2 | 0.1 (≈ 0.075 µg/mL) | 0.05 (≈ 0.0375 µg/mL) | 256 | 4 | 4 | 128 |  |  |  |  |  |
| CC1(C)S[C@@H]2[C@H](NC(=O)[C@H](N)c3ccccc3)C(=O)N2[C@H]1C(=O)O [AMP, ampicillin, reference compound] |  |  | 15 ± 1 |  |  | 25 |  |  |  |  |  |  | > 200 |  |  |  |  |
| O=C(CN(CCCCNC(=O)c1cccc(O)c1O)C(=O)c1cccc(O)c1O)NC(C(=O)NC1C(=O)N2C(C(=O)O)=C(Cl)CCC12)c1ccccc1 (stereo not shown) [BLOR, bis-catechol (azotochelin)-loracarbef] | 0.006 (≈ 0.0045 µg/mL) | 0.012 (≈ 0.009 µg/mL) |  | 6.3 (≈ 4.73 µg/mL) | 0.05 | 0.1 | 0.024 (≈ 0.018 µg/mL) | 0.012 (≈ 0.009 µg/mL) | 128 | 8 | 8 | 128 |  | 11 ± 1 |  |  |  |
| O=C(CCC(=O)N(CCCCNC(=O)c1cccc(O)c1O)CCCNC(=O)c1cccc(O)c1O)NCCCCCN(O)C(=O)CCCC(=O)NC(C(=O)NC1C(=O)N2C(C(=O)O)=C(Cl)CSC12)c1ccccc1 (stereo not shown) [MCEF, mixed ligand bis-catechol-mono-hydroxamate-cefaclor] | > 200 | 13 (≈ 14.1 µg/mL) |  | > 100 |  | 25 | 6.3 to 25 (≈ 6.81 to 27 µg/mL) | > 200 | <0.016 |  |  |  |  |  | >200 | >200 |  |
| N[C@@H](C(=O)N[C@@H]1C(=O)N2C(C(=O)O)=C(Cl)CC[C@H]12)c1ccccc1 [LOR, loracarbef, reference compound] |  |  |  |  |  |  |  |  |  | 2 | 2 |  |  | 15 ± 0.3 | 6.3 (≈ 2.2 µg/mL) | 1.6 (≈ 0.56 µg/mL) | MIC ([1]; BW25113, MHBCA): 6.3 µM (≈ 2.2 µg/mL); Km ([2]; Michaelis–Menten curves, n = 2, read-out: AmpC (PDC-5) Km): 22 ± 0.5 µM; MIC ([3]; P. aeruginosa 1020, read-out: MIC): > 200 µM; MIC ([4]; ID-MHBCA + 0.1 µg/mL supplemental iron): 3.1 µM; MIC ([4]; ID-MHBCA + 1 µg/mL supplemental iron): 3.1 µM; MIC ([4]; MHBCA (+)): 3.1 µM (≈ 1.08 µg/mL) |
| N[C@@H](C(=O)N[C@@H]1C(=O)N2C(C(=O)O)=C(Cl)CS[C@H]12)c1ccccc1 [CEF, cefaclor, reference compound] | 6.3 (≈ 2.32 µg/mL) | 6.3 (≈ 2.32 µg/mL) |  |  | 3.1 |  | 3.1 (≈ 1.14 µg/mL) | 3.1 (≈ 1.14 µg/mL) |  | 1 | 1 |  | > 200 |  |  |  |  |
